Measurements reported in patent US20050209441A1, “Process for promoting proper folding of human serum albumin using a human serum albumin ligand” (priority 2004, published 2005).
Like-named read-outs stand apart in the source and are kept apart here.

Target: human serum albumin (HSA) (Homo sapiens, UniProt P02768)
Experiment: HSA refolding with ligand assistance (ED50 for refolding)
Description: Sodium caprate is added to Solution B to a final concentration of 10 mM. Solution B is held at 37° C. for 1-5 minutes.
Step C. […] Sodium caprate is added to Solution C to a final concentration of 10 mM. Solution C is held at 37° C. for a period of 30 minutes.

Sequence of human serum albumin (HSA) (P02768 25-609): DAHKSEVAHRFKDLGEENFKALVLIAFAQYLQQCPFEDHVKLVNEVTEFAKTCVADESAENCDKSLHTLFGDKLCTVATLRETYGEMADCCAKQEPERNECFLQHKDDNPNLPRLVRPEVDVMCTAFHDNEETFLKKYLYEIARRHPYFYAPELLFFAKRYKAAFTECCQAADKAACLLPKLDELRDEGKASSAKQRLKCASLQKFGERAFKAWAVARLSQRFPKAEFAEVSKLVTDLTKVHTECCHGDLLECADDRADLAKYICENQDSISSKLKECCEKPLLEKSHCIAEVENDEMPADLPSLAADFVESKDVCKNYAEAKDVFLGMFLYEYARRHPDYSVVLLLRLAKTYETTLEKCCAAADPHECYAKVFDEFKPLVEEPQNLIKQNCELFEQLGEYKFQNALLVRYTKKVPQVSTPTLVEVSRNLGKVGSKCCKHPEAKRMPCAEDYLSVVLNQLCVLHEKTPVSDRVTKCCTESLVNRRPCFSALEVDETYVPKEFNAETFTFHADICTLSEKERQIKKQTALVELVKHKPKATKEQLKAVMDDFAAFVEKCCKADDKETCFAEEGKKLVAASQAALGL

Compound | Optimal Concentration (refolding ligand) (Table 1) [mM] | EC50 [µM] | Optimal Concentration (refolding ligand)
CCCCCCCCCCO [1-Decanol (C10), 1-Decanol] | 3 | 300 | 
CCCCCCO [1-Hexanol (C6), 1-Hexanol] | 25 |  | 
CCCCCCCCO [1-Octanol (C8), 1-Octanol] | 3 | 450 | 
CCCCCC(=O)[O-].[Na+] [Na Caproate, sodium caproate] | >30 |  | 
CCCCCCCCCCCC(=O)[O-].[Na+] [Na Laurate, sodium laurate] | 1 | 45 | 

The next lines start with the values.

Optimal Concentration (refolding ligand) (Table 1) [mM] | EC50 [µM] | Optimal Concentration (refolding ligand) | Compound
500 |  |  | CCCCO [1-Butanol (C4), 1-Butanol]
 | 230 | 0.3 mM (saturated) | CCCCCCCCCCCCO [1-Dodecanol (C12), 1-Dodecanol]
150 |  |  | CCCCCO [1-Pentanol (C5), 1-Pentanol]
 | 800 |  | CCCCOC(=O)c1ccc(N)cc1 [n-butyl p-aminobenzoate]
